Our source for the IC50 values is PMC13110267, “Fair and Square: Design, Synthesis and Biological Evaluations of Squaric Acid Derivatives as Novel HDAC8 Inhibitors” (Chemmedchem, 2026).

For one assay, the target named is T1, HDAC8 (Homo sapiens, UniProt Q9BY41).
T1 construct: made in house
T1 sequence (Q9BY41 1-377): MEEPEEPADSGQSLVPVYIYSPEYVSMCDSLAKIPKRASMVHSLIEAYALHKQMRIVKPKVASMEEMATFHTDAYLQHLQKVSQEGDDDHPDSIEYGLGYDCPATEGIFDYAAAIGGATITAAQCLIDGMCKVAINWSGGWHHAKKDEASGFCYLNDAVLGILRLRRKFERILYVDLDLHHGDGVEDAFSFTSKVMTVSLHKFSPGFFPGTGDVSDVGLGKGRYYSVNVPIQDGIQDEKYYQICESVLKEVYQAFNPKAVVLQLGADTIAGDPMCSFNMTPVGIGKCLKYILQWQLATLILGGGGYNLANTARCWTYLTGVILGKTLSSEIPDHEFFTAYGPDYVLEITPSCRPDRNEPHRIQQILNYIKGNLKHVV
Description: HDAC8 fluorometric enzyme inhibition assay, purified recombinant enzyme, 10-point dose-response. Type of assay: biochemical. The settings on record: Table 1; purified recombinant HDAC8 10 nM; mean of three independent experiments; >35 µM = weak inhibitor. The method, then:
(§1) Therefore, the first stage of biological evaluation focused on determining inhibitory concentration (IC50) values of the squaric acid derivatives against HDAC8 and HDAC4 using purified recombinant enzymes. Enzymatic inhibition was quantified using 10‐point dose–response assays, from which IC50 values were calculated (Table 1). HDAC8 and HDAC4 were employed at concentrations of 10 nM and 1 nM, respectively, while other zinc‐dependent HDAC isoenzymes were used at approximate concentrations of ∼1 nM, reflecting the purity of the commercially available preparations. […]
(§2) 1.3.1 HDAC Assay General Inform ation
(§3) The activity of HDAC1, HDAC4, HDAC6, HDAC8, and HDAC11 was determined using a fluorometric assay in black half-area 96-well microplates (Greiner Bio -One , Germany). HDAC1 (#50051) and HDAC 6 (#50006) were purchased from BPS Bioscience.
(§4) HDAC4, HDAC8 and HDAC11 were produced in house as previously described.7- 9 The enzymes were pre-incubated with serial dilutions of the compounds for 1 hour at 30 °C in either assay buffer (25 mM Tris-HCl, 75 mM KCl and 0.001% (v/v) Pluronic F -127, pH 8.0) or MAL buffer (137 m M NaCl, 50 mM Tris-HCl, 2.7 mM KCl, 1 mM MgCl₂, 0 .5 mg/ml bovine serum albumin (BSA), pH 8.0b) for HDAC11. The enzyme reaction was initiated by the addition of the following substrates: 20 µM Boc-L ys(T FA) -AMC for HDAC4 and HDAC8; 80 µM Boc-L ys(T FA) -AMC for HDAC11; and 50 µM Boc -Lys(Ac)-AMC for HDAC1 and HDAC6. After an incubation period of 60 minutes, the reaction was terminated by the addition of 1.7 µM 9,9,9-trifluoro-8-oxo-N -phenyl -nonanamide (SATFMK) for […]
(§5) HDAC6, and 1 µM 1,1-dimethyl -2-[5-(trifluoromethyl)pyrazin-2-yl]isoindoline -4-carbohydroxamic acid (FT895) for HDAC11. The deacetylated substrate was then cleaved into fluorescent 7-amino -4- methylcoumarin (AMC) by the addition of 0.42 mg/mL trypsin.
(§6) Measurements were performed using a PHERAstar FS fluorescence microplate reader (BMG LABTECH) with excitation at 360 nm and emission at 460 nm. The normalised enzyme activities were plotted against the respective ligand concentration and fitted with a four-parameter logistic function using GraphPad Prism 6 software.

The target in another assay is T2, HDAC4 (Homo sapiens, UniProt P56524).
T2 construct: made in house
T2 sequence (P56524 whole entry): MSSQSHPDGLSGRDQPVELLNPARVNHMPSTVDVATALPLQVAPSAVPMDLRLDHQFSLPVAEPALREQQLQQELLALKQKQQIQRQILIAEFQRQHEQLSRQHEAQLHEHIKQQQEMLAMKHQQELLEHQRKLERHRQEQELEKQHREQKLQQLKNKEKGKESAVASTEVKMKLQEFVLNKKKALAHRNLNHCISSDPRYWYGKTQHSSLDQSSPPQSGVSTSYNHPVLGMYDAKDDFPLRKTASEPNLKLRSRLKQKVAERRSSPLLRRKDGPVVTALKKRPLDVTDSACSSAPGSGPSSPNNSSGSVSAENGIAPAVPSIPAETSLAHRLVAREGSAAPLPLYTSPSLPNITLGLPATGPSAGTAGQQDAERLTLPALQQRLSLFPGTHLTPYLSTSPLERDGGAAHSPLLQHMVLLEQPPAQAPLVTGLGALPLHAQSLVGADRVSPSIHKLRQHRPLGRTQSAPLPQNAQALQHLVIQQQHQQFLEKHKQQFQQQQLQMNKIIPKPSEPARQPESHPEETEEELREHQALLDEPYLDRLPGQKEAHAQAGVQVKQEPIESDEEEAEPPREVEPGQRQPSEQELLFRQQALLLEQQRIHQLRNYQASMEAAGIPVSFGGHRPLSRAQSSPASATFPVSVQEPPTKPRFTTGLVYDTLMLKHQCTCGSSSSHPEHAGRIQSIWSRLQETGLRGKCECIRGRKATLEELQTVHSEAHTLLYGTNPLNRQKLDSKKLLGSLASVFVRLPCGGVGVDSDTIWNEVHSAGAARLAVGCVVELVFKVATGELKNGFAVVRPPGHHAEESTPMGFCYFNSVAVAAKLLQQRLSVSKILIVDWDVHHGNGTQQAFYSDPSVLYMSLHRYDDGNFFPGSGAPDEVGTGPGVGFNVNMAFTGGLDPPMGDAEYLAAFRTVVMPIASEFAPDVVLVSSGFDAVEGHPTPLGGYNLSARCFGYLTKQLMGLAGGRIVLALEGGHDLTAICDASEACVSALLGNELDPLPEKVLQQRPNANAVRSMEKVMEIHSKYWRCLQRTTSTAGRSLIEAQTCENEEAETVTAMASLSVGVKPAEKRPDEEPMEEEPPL
Kind of assay: HDAC4 fluorometric enzyme inhibition assay, purified recombinant enzyme, 10-point dose-response. The conditions noted are these: Table 1; purified recombinant HDAC4 1 nM; mean of three independent experiments; >35 µM = weak inhibitor. Type of assay: biochemical. The method, then:
as §1, §2, §3, §4, §5, §6

Structures are written as SMILES. Bounds are passed on as bounds.

`CCOc1c(N2CCOCC2)c(=O)c1=O` [Compound 12e]: the IC50 at HDAC8 and on HDAC4 was more than 35 µM throughout.
As to `CCOc1c(N2CCCCCC2)c(=O)c1=O` [Compound 12d], the IC50 at HDAC8 and at HDAC4 was more than 35 µM each time.
Take `CCOc1c(NCc2ccccc2Br)c(=O)c1=O` [Compound 10e]: the IC50 at HDAC8 and on HDAC4 was more than 35 µM in each case.
For `CCOc1c(Nc2ccccc2OC)c(=O)c1=O` [Compound 9j], the IC50 on HDAC8 and at HDAC4 was more than 35 µM in each case.
`CCOc1c(Nc2cccc(C)c2)c(=O)c1=O` [Compound 9p]: the IC50 on HDAC8 and on HDAC4 was more than 35 µM each time.
As for `CCOc1c(Nc2ccccc2)c(=O)c1=O` [Compound 9a], the IC50 at HDAC8 and at HDAC4 was more than 35 µM throughout.
For the molecule `CCOc1c(NCc2cccc(Br)c2)c(=O)c1=O` [Compound 10f], the IC50 at HDAC8 and at HDAC4 was more than 35 µM throughout.
Take `CCOc1c(N2CCCC2)c(=O)c1=O` [Compound 12b]: the IC50 on HDAC8 and on HDAC4 was more than 35 µM in each case.
`CCOc1c(Nc2cccc(Cl)c2)c(=O)c1=O` [Compound 9c]: the IC50 on HDAC8 and on HDAC4 was more than 35 µM in each case.
On to `O=c1c(N2CCOCC2)c(N2CCOCC2)c1=O` [Compound 16a], for which the IC50 on HDAC8 and at HDAC4 was more than 35 µM throughout.
As to `CCOc1c(Nc2ccc(O)cc2)c(=O)c1=O` [Compound 9i], the IC50 at HDAC8 and on HDAC4 was more than 35 µM each time.
`CCOc1c(N(C)c2ccc(Br)cc2)c(=O)c1=O` [Compound 9s]: the IC50 at HDAC8 and at HDAC4 was more than 35 µM throughout.
Take `CCOc1c(NCc2ccccc2Cl)c(=O)c1=O` [Compound 10b]: the IC50 on HDAC8 and on HDAC4 was more than 35 µM each time.
For the molecule `CCOc1c(Nc2ccc(C(F)(F)F)cc2)c(=O)c1=O` [Compound 9n], the IC50 at HDAC8 and at HDAC4 was more than 35 µM in each case.
As to `CCOc1c(N(C(C)C)C(C)C)c(=O)c1=O` [Compound 11], the IC50 on HDAC8 and at HDAC4 was more than 35 µM in each case.
Consider `CN1CCCN(C)c2c1c(=O)c2=O` [Compound 17b], for which the IC50 on HDAC8 and on HDAC4 was more than 35 µM throughout.
For the molecule `CCOc1c(Nc2ccc(C)cc2)c(=O)c1=O` [Compound 9q], the IC50 at HDAC8 and at HDAC4 was more than 35 µM each time.
In the case of `CCOc1c(NCc2ccccc2)c(=O)c1=O` [Compound 10a], the IC50 on HDAC8 and on HDAC4 was more than 35 µM each time.
As for `CCOc1c(N(C)Cc2ccc(Br)cc2)c(=O)c1=O` [10 h], the IC50 on HDAC8 and on HDAC4 was more than 35 µM in each case.
With `O=c1c(N2CCCCC2)c(N2CCCCC2)c1=O` [Compound 16b], the IC50 on HDAC8 and at HDAC4 was more than 35 µM in each case.
`CCOc1c(Nc2cccc(Br)c2)c(=O)c1=O` [Compound 9e]: the half-maximal inhibitory concentration (IC50) at HDAC8 and on HDAC4 was more than 35 µM throughout.
As for `CCOc1c(N2CCCCC2)c(=O)c1=O` [Compound 12c], the IC50 at HDAC8 and on HDAC4 was more than 35 µM throughout.
Take `CCOc1c(NCc2ccc(Cl)cc2)c(=O)c1=O` [Compound 10d]: the IC50 on HDAC8 and at HDAC4 was more than 35 µM each time.
Consider `CCOc1c(N2C[C@@H](C)O[C@@H](C)C2)c(=O)c1=O` [Compound 12f], for which the IC50 at HDAC8 and at HDAC4 was more than 35 µM each time.
On to `CCOc1c(Nc2ccccc2O)c(=O)c1=O` [Compound 9g], for which the IC50 at HDAC8 and on HDAC4 was more than 35 µM each time.
`CCOc1c(N2CCCc3ccc(Br)cc32)c(=O)c1=O` [Compound 12k]: the IC50 on HDAC8 and at HDAC4 was more than 35 µM each time.
For `CN(c1ccc(Br)cc1)c1c(N(C)c2ccc(Br)cc2)c(=O)c1=O` [Compound 14c], the IC50 on HDAC8 and at HDAC4 was more than 35 µM each time.
Take `CCOc1c(N2CCS(=O)(=O)CC2)c(=O)c1=O` [12 h]: the IC50 on HDAC8 and on HDAC4 was more than 35 µM in each case.
Consider `CCOc1c(N2CCC2)c(=O)c1=O` [Compound 12a], for which the IC50 at HDAC8 and at HDAC4 was more than 35 µM throughout.
As to `CCOc1c(Nc2cccc(O)c2)c(=O)c1=O` [9 h], the IC50 on HDAC8 and at HDAC4 was more than 35 µM each time.
As to `CCOc1c(Nc2ccc(Cl)cc2)c(=O)c1=O` [Compound 9d], the IC50 on HDAC8 and on HDAC4 was more than 35 µM in each case.
With `CCOc1c(N2CCN(C(=O)OC(C)(C)C)CC2)c(=O)c1=O` [Compound 12j], the IC50 at HDAC8 and on HDAC4 was more than 35 µM in each case.
With `CCOc1c(Nc2cccc(C(F)(F)F)c2)c(=O)c1=O` [Compound 9m], the IC50 on HDAC8 and at HDAC4 was more than 35 µM throughout.
Take `CCOc1c(NCc2ccc(Br)cc2)c(=O)c1=O` [Compound 10g]: the IC50 on HDAC8 and on HDAC4 was more than 35 µM in each case.
As for `CN(c1ccccc1)c1c(N(C)c2ccccc2)c(=O)c1=O` [Compound 14a], the IC50 on HDAC8 and at HDAC4 was more than 35 µM each time.
Consider `CCOc1c(Nc2ccc(OC)cc2)c(=O)c1=O` [Compound 9l], for which the IC50 on HDAC8 and on HDAC4 was more than 35 µM throughout.
Take `CC(C)N1CCN(C(C)C)c2c1c(=O)c2=O` [Compound 17a]: the IC50 at HDAC8 and at HDAC4 was more than 35 µM each time.
`CCOc1c(Nc2cccc(C(=O)O)c2)c(=O)c1=O` [Compound 9r]: the IC50 on HDAC8 and on HDAC4 was more than 35 µM each time.
Turning to `O=c1c(N(Cc2ccccc2)c2ccc(Br)cc2)c(N(Cc2ccccc2)c2ccc(Br)cc2)c1=O` [Compound 15], the IC50 at HDAC8 and on HDAC4 was more than 35 µM in each case.
With `CCOc1c(Nc2cccc(OC)c2)c(=O)c1=O` [Compound 9k], the IC50 at HDAC8 and on HDAC4 was more than 35 µM each time.
Regarding `CCOc1c(NCc2cccc(Cl)c2)c(=O)c1=O` [Compound 10c], the IC50 on HDAC8 and at HDAC4 was more than 35 µM in each case.
Consider `CCOc1c(N2CCSC2)c(=O)c1=O` [Compound 12i], for which the IC50 at HDAC8 and at HDAC4 was more than 35 µM each time.
As for `CCOc1c(Nc2ccccc2C)c(=O)c1=O` [Compound 9o], the IC50 at HDAC8 and on HDAC4 was more than 35 µM each time.
As to `CCOc1c(Nc2ccc(Br)cc2)c(=O)c1=O` [Compound 9f], the IC50 on HDAC8 and at HDAC4 was more than 35 µM throughout.
In the case of `O=c1c(Nc2ccccc2)c(Nc2ccccc2)c1=O` [Compound 13a], the IC50 at HDAC8 is more than 35 µM; on HDAC4, 14 ± 2 µM.
Taken in the same sequence, the figures for `CCOc1c(N2CCSCC2)c(=O)c1=O` [Compound 12g] were more than 35 µM and more than 35 µM.

Usually IC50 stands for the concentration that gives 50% inhibition.
